# Measured values published in US20150044144A1, “DISINFECTANT SOLUTION” (RAYMAT MATERIALS, INC., priority 2012, published 2015).
# Assay: Screening stability of different colorants with ORP by UV-Vis
# Settings: 300 ppm colorant; for Colour / UV-vis stability of colorant in ORP solution: 25° C., vs control water solution
structure (smiles),measurement,setting,value
O=C1OC2(c3ccccc31)c1cc(Br)c(O)c(Br)c1Oc1c2cc(Br)c(O)c1Br [Eosine Free Acid Solvent Red 43 D&C red 21],Colour / UV-vis stability of colorant in ORP solution,low concentration ORP (30 ppm FAC),the red color disappeared quickly
O=C([O-])c1ccccc1-c1c2cc(Br)c(=O)c(Br)c-2oc2c(Br)c([O-])c(Br)cc12.[Na+].[Na+] [Eosine YS Acid Red 87 D&C red 22],Colour / UV-vis stability of colorant in ORP solution,high concentration ORP (100 ppm FAC),the red color disappeared quickly
COc1cc(S(=O)(=O)[O-])c(C)cc1N=Nc1c(O)ccc2cc(S(=O)(=O)[O-])ccc12.[Na+].[Na+] [Food dye FD&C red 40],UV-visible absorbance of the colored ORP solution,"high and low FAC ORP solutions, after 10 days",decreased significantly
